Measurements from ChEMBL document CHEMBL1201862, “PubChem BioAssay data set” (2004).
Counter-ions that a name gives are not always drawn. Activity calls are given as the source filed them.

Tests used:
[1] = potency of ADAM10 substrate cleavage blockers – biochemical, QFRET, dose response (AID 743254);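 also: ADAM10 enzyme with the DM2 quenched FRET peptide as substrate; EDANS fluorescence gain as the protease cuts the substrate; inhibitor potency against ADAM10 proteolytic activity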
[2] = target: Disintegrin and metalloproteinase domain-containing protein 17 (Homo sapiens, UniProt P78536); experiment: inhibition of ADAM17 substrate cleavage – biochemical, quenched FRET substrate, counter-screen for ADAM10 exosite inhibitor project, dose response (AID 743253)
Chain of Disintegrin and metalloproteinase domain-containing protein 17 (P78536 whole entry, the tested form may be a part): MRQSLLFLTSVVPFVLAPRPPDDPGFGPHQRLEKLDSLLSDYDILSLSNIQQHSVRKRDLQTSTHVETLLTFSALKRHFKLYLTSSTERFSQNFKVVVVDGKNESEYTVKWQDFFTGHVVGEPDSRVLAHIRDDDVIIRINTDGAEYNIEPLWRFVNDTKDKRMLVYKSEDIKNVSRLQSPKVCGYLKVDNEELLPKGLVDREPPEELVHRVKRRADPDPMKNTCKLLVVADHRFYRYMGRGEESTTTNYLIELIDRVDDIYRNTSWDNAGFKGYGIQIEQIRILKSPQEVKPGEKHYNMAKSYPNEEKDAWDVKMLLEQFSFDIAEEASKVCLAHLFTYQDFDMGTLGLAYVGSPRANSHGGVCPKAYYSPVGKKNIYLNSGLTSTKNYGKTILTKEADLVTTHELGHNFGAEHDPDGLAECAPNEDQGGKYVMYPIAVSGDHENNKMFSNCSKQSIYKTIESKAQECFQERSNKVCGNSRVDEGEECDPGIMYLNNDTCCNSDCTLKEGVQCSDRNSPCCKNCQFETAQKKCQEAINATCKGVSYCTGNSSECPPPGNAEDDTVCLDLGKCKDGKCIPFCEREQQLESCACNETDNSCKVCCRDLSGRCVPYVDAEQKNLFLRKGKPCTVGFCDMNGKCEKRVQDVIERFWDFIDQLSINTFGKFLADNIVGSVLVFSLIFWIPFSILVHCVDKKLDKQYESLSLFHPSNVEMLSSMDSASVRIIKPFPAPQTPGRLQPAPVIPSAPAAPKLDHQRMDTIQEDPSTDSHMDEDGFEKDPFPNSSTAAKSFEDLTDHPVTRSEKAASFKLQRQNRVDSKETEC

[3] = THP-1 cell cytotoxicity, dose response, cytotoxicity control for non-replicating M. tuberculosis project (AID 489025); format: functional
Albumin = Albumin (Bos taurus, UniProt P02769); experiment: Counterscreen for inhibitors of T-cell receptor (TCR)-CD3 interaction: Fluorescence-based biochemical high throughput dose response assay to identify inhibitors of T-cell receptor (TCR)-CD3 interaction using a TAMRA-labeled BSA probe.; format: functional
Chain of Albumin (P02769 whole entry): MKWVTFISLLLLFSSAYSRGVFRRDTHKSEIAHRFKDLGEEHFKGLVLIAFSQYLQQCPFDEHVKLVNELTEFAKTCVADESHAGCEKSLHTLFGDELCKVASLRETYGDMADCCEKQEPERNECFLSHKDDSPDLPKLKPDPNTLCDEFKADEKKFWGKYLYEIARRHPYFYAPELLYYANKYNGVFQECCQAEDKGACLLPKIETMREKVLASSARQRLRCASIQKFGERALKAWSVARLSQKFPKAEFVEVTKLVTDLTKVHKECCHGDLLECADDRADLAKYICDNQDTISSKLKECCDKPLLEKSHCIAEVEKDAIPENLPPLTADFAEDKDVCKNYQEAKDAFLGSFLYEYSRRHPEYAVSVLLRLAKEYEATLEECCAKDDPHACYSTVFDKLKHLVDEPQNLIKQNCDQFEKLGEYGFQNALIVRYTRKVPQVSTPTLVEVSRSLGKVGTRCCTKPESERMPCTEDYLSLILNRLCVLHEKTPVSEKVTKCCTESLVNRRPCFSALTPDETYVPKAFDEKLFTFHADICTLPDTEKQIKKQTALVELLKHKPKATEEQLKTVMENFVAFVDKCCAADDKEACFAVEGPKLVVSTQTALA

[4] = system: Streptococcus sp. 'group A'; experiment: Streptococcus pyogenes SK(-)GAS viability under kanamycin – luminescence, BacTiterGlo, confirmation, counter-screen for streptokinase expression inhibitor project, dose response (AID 1900); format: functional, organism-based
Streptococcus = experiment: GAS UMAA2166 growth inhibition – luminescence, BacTiterGlo, counter-screen for streptokinase expression inhibitor project, dose response (AID 1915); format: functional, organism-based;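 also: potency for reduction of bacterial viability or growth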
Nonstructural protein 1 = Nonstructural protein 1 (Influenza A virus, UniProt Q194T2); format: functional, Influenza A virus (A/California/07/2009(H1N1))
Chain of Nonstructural protein 1 (Q194T2 whole entry): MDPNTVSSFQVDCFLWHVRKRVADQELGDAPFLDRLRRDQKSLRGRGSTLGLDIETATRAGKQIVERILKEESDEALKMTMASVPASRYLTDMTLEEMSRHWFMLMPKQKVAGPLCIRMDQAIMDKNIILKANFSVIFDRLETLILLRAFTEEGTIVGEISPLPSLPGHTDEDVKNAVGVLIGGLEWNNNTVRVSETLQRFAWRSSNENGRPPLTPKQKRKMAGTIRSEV

Beta-galactosidase = Beta-galactosidase (Escherichia coli, UniProt Q8VNN2); experiment: Dose response counterscreen for EBI2 assay utilizing the enzyme, b-galactosidase.; format: functional
Chain of Beta-galactosidase (Q8VNN2 whole entry): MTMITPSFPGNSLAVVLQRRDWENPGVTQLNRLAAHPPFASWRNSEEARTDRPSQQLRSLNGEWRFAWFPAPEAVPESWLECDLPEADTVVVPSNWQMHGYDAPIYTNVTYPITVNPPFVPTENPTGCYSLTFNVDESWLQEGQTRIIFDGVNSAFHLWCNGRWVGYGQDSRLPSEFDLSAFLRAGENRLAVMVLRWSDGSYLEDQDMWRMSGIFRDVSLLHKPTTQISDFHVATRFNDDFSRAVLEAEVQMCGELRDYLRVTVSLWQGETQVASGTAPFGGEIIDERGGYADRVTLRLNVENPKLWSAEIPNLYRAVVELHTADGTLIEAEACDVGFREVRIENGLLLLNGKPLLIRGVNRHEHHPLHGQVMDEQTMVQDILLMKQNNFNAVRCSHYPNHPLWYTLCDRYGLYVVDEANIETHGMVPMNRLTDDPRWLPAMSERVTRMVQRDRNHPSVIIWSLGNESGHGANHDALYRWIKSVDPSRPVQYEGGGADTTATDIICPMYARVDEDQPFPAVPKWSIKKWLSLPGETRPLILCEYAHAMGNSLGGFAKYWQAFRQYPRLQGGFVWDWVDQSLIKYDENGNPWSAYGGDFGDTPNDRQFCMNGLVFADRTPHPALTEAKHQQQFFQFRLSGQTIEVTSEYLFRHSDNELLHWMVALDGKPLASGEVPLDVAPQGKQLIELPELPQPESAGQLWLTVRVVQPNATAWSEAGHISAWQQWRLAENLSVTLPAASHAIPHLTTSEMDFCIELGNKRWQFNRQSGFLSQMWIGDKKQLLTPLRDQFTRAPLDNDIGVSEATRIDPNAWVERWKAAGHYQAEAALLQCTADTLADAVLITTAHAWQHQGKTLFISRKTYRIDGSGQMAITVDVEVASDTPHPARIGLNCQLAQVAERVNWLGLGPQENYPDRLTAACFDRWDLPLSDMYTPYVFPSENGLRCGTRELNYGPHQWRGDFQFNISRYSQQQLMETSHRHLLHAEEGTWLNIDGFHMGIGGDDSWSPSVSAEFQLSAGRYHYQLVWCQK

[5] = cytotoxicity in MITF-independent A375 cells – cell-based, CellTiter-Glo luminescence, dry powder, set 4, counter-screen for MITF inhibitor project, dose response (AID 624364); format: functional; settings: A-375;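 also: A375 melanoma cells are MITF independent so this is a counter screen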
cells [6] = format: functional, cell-based
[7] = target: T1, Trace amine-associated receptor 1 (Homo sapiens, UniProt Q96RJ0); experiment: Fluorescence-based cell-based high throughput dose response assay to identify agonists of the human trace amine associated receptor 1 (TAAR1).; format: functional
T1 sequence (Q96RJ0 whole entry): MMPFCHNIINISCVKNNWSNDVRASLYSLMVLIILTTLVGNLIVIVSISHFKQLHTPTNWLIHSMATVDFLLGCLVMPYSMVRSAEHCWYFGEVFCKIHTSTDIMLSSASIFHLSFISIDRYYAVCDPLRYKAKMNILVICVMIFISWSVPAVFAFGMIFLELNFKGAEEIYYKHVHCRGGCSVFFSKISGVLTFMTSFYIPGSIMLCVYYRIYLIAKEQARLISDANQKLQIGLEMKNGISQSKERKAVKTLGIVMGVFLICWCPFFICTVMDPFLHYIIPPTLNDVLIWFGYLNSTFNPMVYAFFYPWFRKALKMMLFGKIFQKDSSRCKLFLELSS

[8] = target: T1, Trace amine-associated receptor 1; experiment: Counterscreen for agonists of the human trace amine associated receptor 1 (hTAAR1): Fluorescence-based cell-based high throughput dose response assay to identify hTAAR1 agonist that also desensitize TAAR1 receptor response.; format: functional
cells [9] = format: functional, cell-based; remark: listed apart in the source
[10] = viability loss in THP-1 monocytes – THP-1 cells, cytotoxicity control for Vif-APOBEC3G degradation inhibitor project, dose response (AID 1117359); format: functional; settings: THP-1
[11] = P. falciparum Dd2 growth inhibitors, dose response, SYBR Green, cherry-picked samples (AID 1159567); format: functional, cell-based
[12] = viability of uninfected HEp-2 cells – cell-based, HTS, cytotoxicity control for RSV inhibitor project, dose response (AID 2410); format: functional; settings: human respiratory syncytial virus
[13] = viability of PTEN-deleted HCT116 cells – cell-based, HCT116 PTEN knockout, dose response (AID 1047); format: functional;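 also: HCT116 colon tumor cells with PTEN knocked out; cells exposed to compound for 60 hours before readout; potency for loss of cell viability measured by luminescence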
[14] = viability of HCT116 lacking mutant beta-catenin – cell-based, human colon tumor, dose response (AID 1045); format: functional;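 also: HCT116 colon tumor cells with beta catenin knocked out; cells exposed to compound for 60 hours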
HEK293 = experiment: EBV LMP1 TES2 canonical NF-kB signalling blockers – cell-based, HEK293, luciferase, cherry-pick, dose response (AID 588343); format: functional; settings: Homo sapiens

**Q.** What does the source list for `OC(c1ccccc1)(c1nc(-c2cccc(C(F)(F)F)c2)cs1)C(F)(F)F` (centres undefined)?
**A.** IC50 [1]: 11.2 µM (inactive); IC50 [2]: > 69.5 µM (inactive)

**Q.** For `CCc1nc2ccc(C(=O)Nc3cccc(OC)c3)cn2c1N(CC)Cc1cccc(Br)c1`, which IC50 [1] is on record?
**A.** > 69.5 µM (inactive)

**Q.** And the IC50 [2]?
**A.** > 69.5 µM (inactive)

**Q.** With `COc1ccc(C(=O)C=CNNC(=O)c2ccc(Cl)cc2)cc1` as the compound, how does the CC50 [3] read?
**A.** 15.6 µM (active)

**Q.** What about the IC50 (Albumin) of the same compound?
**A.** > 94.1 µM (inactive)

**Q.** Which EC50 [4] does the source give for `O=C(N/N=C/c1cc([N+](=O)[O-])ccc1O)c1cccc(N2CCCC2=O)c1` here?
**A.** 0.935 µM (active)

**Q.** And the EC50 (Streptococcus)?
**A.** 1.9 µM (active)

**Q.** And the IC50 (Nonstructural protein 1)?
**A.** 6.59 µM (active)

**Q.** What about the IC50 (Albumin) of the same compound?
**A.** > 94.1 µM (inactive)

**Q.** For `OC[C@@H]1CN(Cc2cccc(C(F)(F)F)c2)C[C@H](n2cnc3c(NC4CC4)ncnc32)O1`, which IC50 (Beta-galactosidase) is on record?
**A.** > 80 µM (inactive)

**Q.** Which AC50 [5] does the source give for `O=C1C(NS(=O)(=O)c2ccc(Br)cc2)=C(N2CCN(c3ccccc3)CC2)C(=O)c2ccccc21` here?
**A.** > 70 µM (inactive)

**Q.** For `CN(C)c1ccc(/C=N/CC2COc3ccccc3O2)cc1` (centres undefined), which IC50 (cells [6]) is on record?
**A.** > 29.9 µM (inactive)

**Q.** What about the EC50 [7] of the same compound?
**A.** 4.25 µM (active)

**Q.** And the IC50 [8]?
**A.** 14.3 µM (inactive)

**Q.** And the EC50 (cells [9])?
**A.** > 29.9 µM (inactive)

**Q.** Which IC50 (Beta-galactosidase) does the source give for `Nc1c(S(=O)(=O)c2ccccc2)c2nc3ccccc3nc2n1/N=C/c1ccco1` here?
**A.** > 80 µM (inactive)

**Q.** What about the CC50 [10] of the same compound?
**A.** > 40 µM (active)

**Q.** Which AC50 [11] does the source give for `O=C(C[C@H]1CC[C@@H]2[C@H](COC[C@@H](O)CN2C(=O)Nc2ccc3c(c2)OCO3)O1)N1CCN(c2ccccc2)CC1` here?
**A.** 22.8 µM (active)

**Q.** For `CCOC(=O)C1=C(C)N(Cc2ccccc2)C(=O)NC1c1ccccc1OS(=O)(=O)c1ccccc1[N+](=O)[O-]` (centres undefined), which CC50 [12] is on record?
**A.** 5.56 µM (active)

**Q.** What about the IC50 [1] of the same compound?
**A.** > 69.5 µM (inactive)

**Q.** What about the IC50 [2] of the same compound?
**A.** > 69.5 µM (inactive)

**Q.** What does the source list for `O=C(CCN1CCC(c2ccccc2)C1)c1ccc2c(c1)OCCO2` (centres undefined) [PROROXAN HYDROCHLORIDE]?
**A.** EC50 [13]: 36.3 µM (active); EC50 [14]: 34.3 µM (active); AC50 (HEK293): 76.8 µM (active); IC50 (cells [6]): > 29.9 µM (inactive); EC50 [7]: 0.21 µM (active); IC50 [8]: 1.46 µM (active); EC50 (cells [9]): > 29.9 µM (inactive)
